Measured values: US8178559B2, “Organic compounds” (Novartis AG, priority 2004, dated 2012)

Target: T1, renin (Homo sapiens, UniProt P00797)
T1 construct: made in house; host or cells: Chinese Hamster Ovary cells
T1 sequence (P00797 67-406): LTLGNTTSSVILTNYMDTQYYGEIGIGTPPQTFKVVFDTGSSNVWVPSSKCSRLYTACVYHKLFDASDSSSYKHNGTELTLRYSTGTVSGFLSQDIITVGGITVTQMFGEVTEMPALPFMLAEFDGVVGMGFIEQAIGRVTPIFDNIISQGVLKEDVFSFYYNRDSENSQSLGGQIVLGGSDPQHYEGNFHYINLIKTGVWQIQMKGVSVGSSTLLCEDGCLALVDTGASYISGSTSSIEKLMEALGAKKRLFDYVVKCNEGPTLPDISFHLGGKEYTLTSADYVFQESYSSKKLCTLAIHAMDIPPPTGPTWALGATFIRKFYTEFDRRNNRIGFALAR
Test: renin enzyme assay (which of the described assay systems is not specified)
Assay type: biochemical
Details: in the several assay system as described above
Protocol: Recombinant human renin (expressed in Chinese Hamster Ovary cells and purified using standard methods) at 7.5 nM concentration is incubated with test compound at various concentrations for 1 h at RT in 0.1 M Tris-HCl buffer, pH 7.4, containing 0.05 M NaCl, 0.5 mM EDTA and 0.05% CHAPS. Synthetic peptide substrate Arg-Glu(EDANS)-Ile-His-Pro-Phe-His-Leu-Val-Ile_His_Thr-Lys(DABCYL)-Arg9 is added to a final concentration of 2 μM and increase in fluorescence is recorded at an excitation wave-length of 350 nm and at an emission wave-length of 500 nm in a microplate spectro-fluorimeter. IC50 values are calculated from percentage of inhibition of renin activity as a function of test compound concentration (Fluorescence Resonance Energy Transfer, FRET, assay).
Alternatively, recombinant human renin (expressed in Chinese Hamster Ovary cells and purified using standard methods) at 0.5 nM concentration is incubated with test compound at various concentrations for 2 h at 37° C. in 0.1 M Tris-HCl buffer, pH 7.4, containing 0.05 M NaCl, 0.5 mM EDTA and 0.05% CHAPS. Synthetic peptide substrate Arg-Glu(EDANS)-Ile-His-Pro-Phe-His-Leu-Val-Ile_His_Thr-Lys(DABCYL)-Arg9 is added to a final concentration of 4 μM and increase in fluorescence is recorded at an excitation wave-length of 340 nm and at an emission wave-length of 485 nm in a microplate spectro-fluorimeter. […]

## Cc1cccc(CN(C(=O)[C@H]2CNCC[C@@H]2c2cccc(-c3ccccc3)c2)C2CC2)c1C [Example 75]
  inhibitory activity compared with the active enantiomer of Example 8: same inhibitory activity to an active enantiomer of Example 8
